Measurements: ChEMBL document CHEMBL1155164, “Sequencing and comparative genomic analysis of pK29, a 269-kilobase conjugative plasmid encoding CMY-8 and CTX-M-3 beta-lactamases in Klebsiella pneumoniae” (2007)
In brackets after ≈: the same amount, converted by molar mass.

How the values were obtained:
Format in all cases: functional
[1] = tested on: Escherichia coli; assay: Antibacterial activity against plasmid pK29 transconjugant Escherichia coli J53 by Etest
[2] = tested on: Klebsiella pneumoniae; assay: Antibacterial activity against Klebsiella pneumoniae NK29 by Etest
[3] = tested on: Escherichia coli; assay: Antibacterial activity against Escherichia coli J53 by Etest
[4] = tested on: Escherichia coli; assay: Antibacterial activity against Escherichia coli J53 by broth microdilution test
[5] = tested on: Klebsiella pneumoniae; assay: Antibacterial activity against Klebsiella pneumoniae NK29 by broth microdilution test
[6] = tested on: Escherichia coli; assay: Antibacterial activity against plasmid pK29 transconjugant Escherichia coli J53 by broth microdilution test
[7] = tested on: Klebsiella pneumoniae; assay: Antibacterial activity against Klebsiella pneumoniae NK29 assessed as inhibition zone diameter by CLSI disk diffusion confirmatory test
[8] = tested on: Escherichia coli; assay: Antibacterial activity against Escherichia coli J53 assessed as inhibition zone diameter by CLSI disk diffusion confirmatory test
[9] = tested on: Escherichia coli; assay: Antibacterial activity against plasmid pK29 transconjugant Escherichia coli J53 assessed as inhibition zone diameter by CLSI disk diffusion confirmatory test

SMILES	MIC [1] [µg/mL]	MIC [2] [µg/mL]	MIC [3] [µg/mL]	MIC [4] [µg/mL]	MIC [5] [µg/mL]	MIC [6] [µg/mL]	inhibition zone (IZ) [7] [mm]	inhibition zone (IZ) [8] [mm]	inhibition zone (IZ) [9] [mm]
C[C@@H](O)[C@H]1C(=O)N2C(C(=O)O)=C(SCCNC=N)C[C@H]12 [IMIPENEM ANHYDROUS]	0.25 (≈ 0.835 µM)	0.25 (≈ 0.835 µM)							
CO[C@@]1(NC(=O)Cc2cccs2)C(=O)N2C(C(=O)O)=C(COC(N)=O)CS[C@@H]21 [CEFOXITIN]	> 256	> 256	4 (≈ 9.36 µM)						
CO/N=C(\C(=O)N[C@@H]1C(=O)N2C(C(=O)O)=C(CSc3nc(=O)c(O)nn3C)CS[C@H]12)c1csc(N)n1 [CEFTRIAXONE]	16 (≈ 28.9 µM)	24 (≈ 43.3 µM)	0.19 (≈ 0.343 µM)						
CN(C)[C@@H]1C(O)=C(C(N)=O)C(=O)[C@@]2(O)C(O)=C3C(=O)c4c(O)cccc4[C@@](C)(O)[C@H]3C[C@@H]12 [TETRACYCLINE]	2 (≈ 4.5 µM)	8 (≈ 18 µM)	2 (≈ 4.5 µM)						
NC[C@H]1O[C@H](O[C@H]2[C@H](O)[C@@H](O[C@H]3O[C@H](CO)[C@@H](O)[C@H](N)[C@H]3O)[C@H](N)C[C@@H]2N)[C@H](O)[C@@H](O)[C@@H]1O [KANAMYCIN]				8 (≈ 16.5 µM)	32 (≈ 66 µM)	32 (≈ 66 µM)			
O=C(N[C@H](CO)[C@H](O)c1ccc([N+](=O)[O-])cc1)C(Cl)Cl [CHLORAMPHENICOL]	96 (≈ 297 µM)	96 (≈ 297 µM)	4 (≈ 12.4 µM)						
O=C(O)c1cn(C2CC2)c2cc(N3CCNCC3)c(F)cc2c1=O [CIPROFLOXACIN]		0.047 (≈ 0.142 µM)							
C[C@H]1[C@H](NC(=O)/C(=N\OC(C)(C)C(=O)O)c2csc(N)n2)C(=O)N1S(=O)(=O)O [AZTREONAM]	2 (≈ 4.59 µM)	4 (≈ 9.19 µM)							
CO/N=C(\C(=O)N[C@@H]1C(=O)N2C(C(=O)O)=C(COC(C)=O)CS[C@H]12)c1csc(N)n1 [CEFOTAXIME]	24 (≈ 52.7 µM)	32 (≈ 70.3 µM)	0.064 (≈ 0.141 µM)				13	31	16
Cc1cc(NS(=O)(=O)c2ccc(N)cc2)no1 [SULFAMETHOXAZOLE]				≤ 64	> 512	> 512			
CC(C)(O/N=C(\C(=O)N[C@@H]1C(=O)N2C(C(=O)[O-])=C(C[n+]3ccccc3)CS[C@H]12)c1csc(N)n1)C(=O)O [CEFTAZIDIME]	1.5 (≈ 2.74 µM)	16 (≈ 29.3 µM)	0.19 (≈ 0.348 µM)				17	33	27
CO/N=C(\C(=O)N[C@@H]1C(=O)N2C(C(=O)[O-])=C(C[N+]3(C)CCCC3)CS[C@H]12)c1csc(N)n1 [CEFEPIME]	1 (≈ 2.08 µM)	2 (≈ 4.16 µM)	0.094 (≈ 0.196 µM)						
